Measured values taken from US20230089605A1, “USE OF DOXYCYCLINE, RESVERATROL, IVERMECTIN, AND RELATED CHEMICALLY MODIFIED COMPOUNDS TO TREAT OR PREVENT VIRAL INFECTIONS” (Ardestat Biologics, LLC, priority 2021, published 2023).

Target: T1, MMP9 (Homo sapiens, UniProt P14780)
T1 construct: purchased Abcam ab139449
Experiment: MMP9 inhibitor screening assay kit (Fluorometric), Abcam
Type: biochemical
Settings: result given in words only
Protocol: Doxycycline, resveratrol, colchicine, and ivermectin were assessed at the indicated concentrations using the MMP9 Inhibitor Screening Assay Kit (abcam), according to the manufacturer's instructions.
Inhibition of MMP9 was determined using the MMP9 inhibitor screening assay kit (Fluorometric) from Abcam (Cat#ab139449) according to the manufacturer's instructions. Unquenching of a fluorogenic peptide by MMP9 was monitored for 10 minutes in the presence or absence of inhibitory compounds, using a fluorescent microplate reader (Ex/Em=328/420). Reaction velocity (V) in RFU/minute was used to determine the % of remaining enzymatic activity, relative to untreated control, according to the following equation: (Vinhibitor/Vcontrol)×100 (FIG. 2).

T1 sequence (P14780 107-444 limits assumed): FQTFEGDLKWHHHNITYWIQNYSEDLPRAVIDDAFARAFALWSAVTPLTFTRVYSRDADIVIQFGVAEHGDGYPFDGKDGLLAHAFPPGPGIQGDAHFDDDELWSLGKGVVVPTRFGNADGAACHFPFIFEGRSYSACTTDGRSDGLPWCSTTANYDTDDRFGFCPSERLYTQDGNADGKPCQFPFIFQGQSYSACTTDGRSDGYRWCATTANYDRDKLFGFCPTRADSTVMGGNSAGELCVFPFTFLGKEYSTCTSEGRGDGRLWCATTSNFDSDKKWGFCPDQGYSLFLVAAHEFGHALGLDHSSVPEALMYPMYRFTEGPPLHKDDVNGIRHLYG

Compound	inhibition of MMP activity (% of remaining enzymatic activity relative to untreated control) (fluorogenic peptide unquenching monitored 10 minutes, FIG. 2)	interference with the MMP-inhibiting effects of doxycycline and resveratrol
Oc1ccc(C=Cc2cc(O)cc(O)c2)cc1 [resveratrol]	inhibited MMP activity but to a much more modest extent compared to doxycycline	
ivermectin		has not been shown to interfere with these MMP-inhibiting effects
